In US12448388B2, “PRMT5 inhibitors and uses thereof” (Gilead Sciences, Inc., priority 2023, dated 2025):

System: HCT116 MTAP-deleted cell lines
Assay: Cell viability assay (CellTiter-Glo, 7 days), HCT116 MTAP-deleted
Type: cell-based
Conditions: Homo sapiens, HCT-116; cell viability, HCT116 MTAP-deleted; class symbols; read-out: CC50
Procedure, shortened: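 HCT116 MTAP-deleted and wild-type cells exposed to serially diluted compound for 7 days at 37 °C, 5% CO2. Viability read by CellTiter-Glo luminescence; CC50 derived per line, with selectivity comparing WT to MTAP-deleted, limited solubility can inflate values marked *.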

Compound | CC50 [nM]
Nc1nc2cc(F)c(C(=O)N3CCC[C@@H]4Oc5c(ccc(OC(F)(F)F)c5F)[C@@H]43)cc2n2cncc12 [Ff-343, (4-amino-7-fluoroimidazo[1,5-a]quinoxalin-8-yl)((4aS,9bS)-6-fluoro-7-(trifluoromethoxy)-3,4,4a,9b-tetrahydrobenzofuro[3,2-b]pyridin-1(2H)-yl)methanone] | < 100
Cc1ncc2c(N)nc3cnc(C(=O)N4CCC[C@@H]5Oc6c(ccc(OC(F)(F)F)c6F)[C@@H]54)cc3n12 [Ff-347, (4-amino-1-methylimidazo[1,5-a]pyrido[3,4-e]pyrazin-8-yl)((4aS,9bS)-6-fluoro-7-(trifluoromethoxy)-3,4,4a,9b-tetrahydrobenzofuro[3,2-b]pyridin-1(2H)-yl)methanone] | < 100
C[C@@H]1C[C@@H]2Oc3c(ccc(C(F)(F)F)c3F)[C@@H]2N(C(=O)c2cc3c(cn2)nc(N)c2cncn23)C1 [Ff-348, (4-aminoimidazo[1,5-a]pyrido[3,4-e]pyrazin-8-yl)((3R,4aS,9bS)-6-fluoro-3-methyl-7-(trifluoromethyl)-3,4,4a,9b-tetrahydrobenzofuro[3,2-b]pyridin-1(2H)-yl)methanone] | < 100
N#Cc1cc2nc(N)c3cncn3c2cc1C(=O)N1CCC[C@@H]2Oc3cc(OC(F)(F)F)ccc3[C@@H]21 [Ff-349, 4-amino-8-((4aS,9bS)-7-(trifluoromethoxy)-1,2,3,4,4a,9b-hexahydrobenzofuro[3,2-b]pyridine-1-carbonyl)imidazo[1,5-a]quinoxaline-7-carbonitrile] | < 100
Cc1ncc2c(N)nc3ccc(C(=O)N(C)[C@@H]4COc5cc(C(F)(F)F)c(F)cc54)cc3n12 [Ff-352, (S)-4-amino-N-(5-fluoro-6-(trifluoromethyl)-2,3-dihydrobenzofuran-3-yl)-N,1-dimethylimidazo[1,5-a]quinoxaline-8-carboxamide] | < 100
CN(C(=O)c1ccc2nc(N)c3cncn3c2c1)[C@@H]1COc2cc(C(F)(F)F)c(F)cc21 [Ff-353, (S)-4-amino-N-(5-fluoro-6-(trifluoromethyl)-2,3-dihydrobenzofuran-3-yl)-N-methylimidazo[1,5-a]quinoxaline-8-carboxamide] | < 100
CN(C(=O)c1cc2c(cc1F)nc(N)c1cncn12)[C@@H]1COc2c1ccc(C(F)(F)F)c2F [Ff-354, (S)-4-amino-7-fluoro-N-(7-fluoro-6-(trifluoromethyl)-2,3-dihydrobenzofuran-3-yl)-N-methylimidazo[1,5-a]quinoxaline-8-carboxamide] | < 100
Cc1ncc2c(N)nc3ccc(C(=O)N(C)[C@@H]4COc5c4ccc(C(F)(F)F)c5F)cc3n12 [Ff-355, (S)-4-amino-N-(7-fluoro-6-(trifluoromethyl)-2,3-dihydrobenzofuran-3-yl)-N,1-dimethylimidazo[1,5-a]quinoxaline-8-carboxamide] | 100 to 1000
CN(C(=O)c1ccc2nc(N)c3cncn3c2c1)[C@@H]1COc2c1ccc(C(F)(F)F)c2F [Ff-356, (S)-4-amino-N-(7-fluoro-6-(trifluoromethyl)-2,3-dihydrobenzofuran-3-yl)-N-methylimidazo[1,5-a]quinoxaline-8-carboxamide] | < 100
Nc1nc2cc(F)c(C(=O)N3CCC[C@@H]4OCc5nc(C(F)(F)F)ccc5[C@@H]43)cc2n2cncc12 [Ff-357, (4-amino-7-fluoroimidazo[1,5-a]quinoxalin-8-yl)((4aS,10bS)-8-(trifluoromethyl)-2,3,4,4a,6,10b-hexahydro-1H-pyrano[3,2-b:5,4-b′]dipyridin-1-yl)methanone] | < 100
Cc1ncn2c1c(N)nc1cc(F)c(C(=O)N3CCC[C@@H]4OCc5nc(C(F)(F)F)ccc5[C@@H]43)cc12 [Ff-358, (4-amino-7-fluoro-3-methylimidazo[1,5-a]quinoxalin-8-yl)((4aS,10bS)-8-(trifluoromethyl)-2,3,4,4a,6,10b-hexahydro-1H-pyrano[3,2-b:5,4-b′]dipyridin-1-yl)methanone] | < 100
